According to PMC10257182, “Discovery of senolytics using machine learning” (Nature Communications, 2023):
Read-outs that look alike come from different tables or passages of the source.

Columns and labels:
[1] = tested on: non-senescent control IMR90 ER:RAS cells; assay: Nuclei count (Hoechst, high content imaging) senolytic assay, OIS model, non-senescent control cells; type: cell-based, human; details: Homo sapiens
Source text: (§1) To test for senolytic activity, we compared the effect of each compound on the total cell number (automated high content image-based analysis of total number of nuclei per well) in non-senescent and senescent IMR90 ER:RAS cultures treated with the top hits from the computational screen (Figs. 2e and 3a–d and Supplementary Fig. 4a–c). The drop in cell number compared to untreated controls is indicated by the nuclei count and reflects cell death[13],[15]. As positive control, we employed ouabain, a cardiac glycoside with well characterised senolytic activity.
(§2) We performed experimental validation of the compounds with z-score > 8 (Fig. 2e). […] We employed two cellular models of senescence: one of OIS and a second one of TIS. For the OIS case, we utilised IMR90 ER:RAS cells with 4-OHT at 100 nM. […] For the TIS model, we used A549 cells with etoposide at 100 μM. The exposure of the cells to etoposide lasted 48 h, after which period the cells were cultivated for a further three days with normal media.
(§3) IMR90 (CCL-186) human foetal lung fibroblasts and A549 (CCL-185) human lung adenocarcinoma cells were obtained from the American Type Culture Collection (ATCC, Manassas, VA). The cell lines were confirmed to be mycoplasma negative (Lonza MycoAlert, cat #LT07-118). IMR90 ER:RAS is a derivative of IMR90 cells expressing a switchable version of oncogenic H-Ras[84]. IMR90 ER:RAS and A549 cells were maintained in Dulbecco’s Modified Eagle Medium (DMEM, ThermoFisher) supplemented with foetal bovine serum (10%), L-glutamine (2 mM, ThermoFisher), and antibiotic-antimycotic solution (1%, ThermoFisher) and incubated under standard tissue culture conditions (37 °C and 5% CO2). For induction of the senescent phenotype, IMR90-ER:RAS cells were cultured in hydroxytamoxifen (4-OHT) (Sigma) added media at 100 nM final concentration. IMR90 were kept in culture for over 27 passages for replicative senescence. Cells were tested for mycoplasma on a regular basis.
(§4) Cells were seeded (50 μL per well) into 384-well plates (IMR90 ER:RAS cells in Nunc Optical Bottom Polybase Microplates [#142761, Thermo Scientific, Rochester, NY] and A549 cells in CELLSTAR Cell Culture Microplates [#781091, Greiner Bio-One, Kremsmünster, Austria]). Cells were incubated under standard tissue culture conditions for 24 h before the addition of compounds. Passage 14 IMR90 ER:RAS cells were seeded at 1300 cells per well in the control condition, and at 1600 cells per well in the senescent case. Passage 34 A549 cells were seeded at 7000 cells per well in the control condition, and at 10,000 cells per well in the senescent case.
(§5) Dose response plates were prepared with a DMSO control and a 10-point […] concentration range, and added to the compounds using a D300e digital dispenser (Tecan Trading AG, Switzerland) at a final concentration of between 10 μM and 10 nM. Every screened condition was carried out in triplicate. After 72 h of incubation with exposure to the compounds, cells were fixed by the addition of an equal volume of formaldehyde (8%, 50 μL; #BP531-500, Fisher Bioreagents, Fisher Scientific, Loughborough, Leicestershire) to the existing media, incubated at room temperature (30 min), and washed three times in phosphate-buffered saline (PBS). Cells were then permeabilised in Triton-X100 (0.1%, 50 μL) and incubated at room temperature (30 min) followed by three more washes with PBS.
(§6) Cells were stained with Hoechst 33342 for nuclei count (excitation/emission wavelength at 387/447 […], DAPI channel, original concentration at 10 mg/ml, final concentration at 2 μg/ml; H1399, Molecular Probes, Eugene, OR). The staining solution was prepared in bovine serum albumin solution (10%). The staining solution was added to each well (30 μL) and incubated in the dark at room temperature (30 min), followed by three washes with PBS and no final aspiration. Plates were foil sealed.

[2] = tested on: senescent IMR90 ER:RAS cells (4-OHT-induced); assay: Nuclei count (Hoechst, high content imaging) senolytic assay, oncogene-induced senescence (OIS) model, senescent cells; type: cell-based, human
Source text: as §1, §2, §3, §4, §5, §6

Work on `C[C@@H]1O[C@@H](O[C@H]2C[C@@H](O)[C@]3(CO)[C@H]4[C@H](O)C[C@]5(C)[C@@H](C6=CC(=O)OC6)CC[C@]5(O)[C@@H]4CC[C@]3(O)C2)[C@H](O)[C@H](O)[C@H]1O` [Ouabain, ouabain, reference compound] yielded a viability at 10 µM ([1]; IMR-90, 72 h, Control, log (dose) [M] -5, 72 h, mean n=3 (Fig 3C), read-out: Mean % Cell Survival) of 15.9%, a viability at 4.677 µM ([1]; IMR-90, 72 h, Control, log (dose) [M] -5.33, 72 h, mean n=3 (Fig 3C), read-out: Mean % Cell Survival) of 22.3% and a viability at 2.188 µM ([1]; IMR-90, 72 h, Control, log (dose) [M] -5.66, 72 h, mean n=3 (Fig 3C), read-out: Mean % Cell Survival) of 23.9%. The viability at 1 µM ([1]; IMR-90, 72 h, Control, log (dose) [M] -6, 72 h, mean n=3 (Fig 3C), read-out: Mean % Cell Survival) was 27%, the viability at 0.4677 µM ([1]; IMR-90, 72 h, Control, log (dose) [M] -6.33, 72 h, mean n=3 (Fig 3C), read-out: Mean % Cell Survival) was 29.6% and the viability at 0.2188 µM ([1]; IMR-90, 72 h, Control, log (dose) [M] -6.66, 72 h, mean n=3 (Fig 3C), read-out: Mean % Cell Survival) was 46.7%. For the same molecule, the viability at 0.1 µM ([1]; IMR-90, 72 h, Control, log (dose) [M] -7, 72 h, mean n=3 (Fig 3C), read-out: Mean % Cell Survival) was 60.8%, the viability at 0.04677 µM ([1]; IMR-90, 72 h, Control, log (dose) [M] -7.33, 72 h, mean n=3 (Fig 3C), read-out: Mean % Cell Survival) was 78.1% and the viability at 0.02188 µM ([1]; IMR-90, 72 h, Control, log (dose) [M] -7.66, 72 h, mean n=3 (Fig 3C), read-out: Mean % Cell Survival) was 87.3%. It also gave a viability at 0.01 µM ([1]; IMR-90, 72 h, Control, log (dose) [M] -8, 72 h, mean n=3 (Fig 3C), read-out: Mean % Cell Survival) of 88.3%, a viability at 0.0464 µM ([1]; IMR-90, Control, 46.4 nM, normalised to DMSO, individual experiments (Fig 3B), read-out: % Cell Survival) of 78.1% and a viability at 10 µM ([1]; IMR-90, control cells, log (dose) [M] -5, read-out: % Cell Survival) of 10.9%. For the same molecule, the viability at 4.677 µM ([1]; IMR-90, control cells, log (dose) [M] -5.33, read-out: % Cell Survival) was 23.1%, the viability at 2.188 µM ([1]; IMR-90, control cells, log (dose) [M] -5.66, read-out: % Cell Survival) was 27% and the viability at 1 µM ([1]; IMR-90, control cells, log (dose) [M] -6, read-out: % Cell Survival) was 27.3%. The viability at 0.4677 µM ([1]; IMR-90, control cells, log (dose) [M] -6.33, read-out: % Cell Survival) was 29.4%, the viability at 0.2188 µM ([1]; IMR-90, control cells, log (dose) [M] -6.66, read-out: % Cell Survival) was 46% and the viability at 0.1 µM ([1]; IMR-90, control cells, log (dose) [M] -7, read-out: % Cell Survival) was 62.2%. For the same molecule, the viability at 0.04677 µM ([1]; IMR-90, control cells, log (dose) [M] -7.33, read-out: % Cell Survival) was 81.7%, the viability at 0.02188 µM ([1]; IMR-90, control cells, log (dose) [M] -7.66, read-out: % Cell Survival) was 81.6% and the viability at 0.01 µM ([1]; IMR-90, control cells, log (dose) [M] -8, read-out: % Cell Survival) was 86%. It also gave an IC50 ([1]; IMR-90, OIS model, non-senescent IMR90 ER:RAS, nuclei count, 72 h) of 231 nM, a viability at 10 µM ([2]; Homo sapiens, IMR-90, 72 h, Senescent, log (dose) [M] -5, 72 h, mean n=3 (Fig 3C), read-out: Mean % Cell Survival) of 2.57% and a viability at 4.677 µM ([2]; Homo sapiens, IMR-90, 72 h, Senescent, log (dose) [M] -5.33, 72 h, mean n=3 (Fig 3C), read-out: Mean % Cell Survival) of 2.79%. The viability at 2.188 µM ([2]; Homo sapiens, IMR-90, 72 h, Senescent, log (dose) [M] -5.66, 72 h, mean n=3 (Fig 3C), read-out: Mean % Cell Survival) was 3.51%, the viability at 1 µM ([2]; Homo sapiens, IMR-90, 72 h, Senescent, log (dose) [M] -6, 72 h, mean n=3 (Fig 3C), read-out: Mean % Cell Survival) was 4.22% and the viability at 0.4677 µM ([2]; Homo sapiens, IMR-90, 72 h, Senescent, log (dose) [M] -6.33, 72 h, mean n=3 (Fig 3C), read-out: Mean % Cell Survival) was 4.07%. It also gave a viability at 0.2188 µM ([2]; Homo sapiens, IMR-90, 72 h, Senescent, log (dose) [M] -6.66, 72 h, mean n=3 (Fig 3C), read-out: Mean % Cell Survival) of 2.69%, a viability at 0.1 µM ([2]; Homo sapiens, IMR-90, 72 h, Senescent, log (dose) [M] -7, 72 h, mean n=3 (Fig 3C), read-out: Mean % Cell Survival) of 4.75% and a viability at 0.04677 µM ([2]; Homo sapiens, IMR-90, 72 h, Senescent, log (dose) [M] -7.33, 72 h, mean n=3 (Fig 3C), read-out: Mean % Cell Survival) of 11.8%. It also gave a viability at 0.02188 µM ([2]; Homo sapiens, IMR-90, 72 h, Senescent, log (dose) [M] -7.66, 72 h, mean n=3 (Fig 3C), read-out: Mean % Cell Survival) of 73%, a viability at 0.01 µM ([2]; Homo sapiens, IMR-90, 72 h, Senescent, log (dose) [M] -8, 72 h, mean n=3 (Fig 3C), read-out: Mean % Cell Survival) of 89.4% and a viability at 10 µM ([2]; Homo sapiens, IMR-90, senescence cells, log (dose) [M] -5, read-out: % Cell Survival) of 2.5%. The viability at 4.677 µM ([2]; Homo sapiens, IMR-90, senescence cells, log (dose) [M] -5.33, read-out: % Cell Survival) was 2.14%, the viability at 2.188 µM ([2]; Homo sapiens, IMR-90, senescence cells, log (dose) [M] -5.66, read-out: % Cell Survival) was 4.05% and the viability at 1 µM ([2]; Homo sapiens, IMR-90, senescence cells, log (dose) [M] -6, read-out: % Cell Survival) was 4.29%. For the same molecule, the viability at 0.4677 µM ([2]; Homo sapiens, IMR-90, senescence cells, log (dose) [M] -6.33, read-out: % Cell Survival) was 5.48%, the viability at 0.2188 µM ([2]; Homo sapiens, IMR-90, senescence cells, log (dose) [M] -6.66, read-out: % Cell Survival) was 3.1% and the viability at 0.1 µM ([2]; Homo sapiens, IMR-90, senescence cells, log (dose) [M] -7, read-out: % Cell Survival) was 4.88%. It also gave a viability at 0.04677 µM ([2]; Homo sapiens, IMR-90, senescence cells, log (dose) [M] -7.33, read-out: % Cell Survival) of 11.2%, a viability at 0.02188 µM ([2]; Homo sapiens, IMR-90, senescence cells, log (dose) [M] -7.66, read-out: % Cell Survival) of 70.8% and a viability at 0.01 µM ([2]; Homo sapiens, IMR-90, senescence cells, log (dose) [M] -8, read-out: % Cell Survival) of 86.1%. For the same molecule, the IC50 ([2]; Homo sapiens, IMR-90, OIS model, 4-OHT-induced IMR90 ER:RAS, nuclei count, 72 h) was 28 nM and the “dose showing the clearest / optimal senolytic effect” value ([2]; OIS IMR90 ER:RAS, Hoechst nuclei count, marginal effect on normal cells) was 46.4 nM.
